Counter-ions that a name gives are not always drawn.
Assays:
Assay in all cases: MIC, agar dilution
Format in all cases: cell-based
[1] = system: Escherichia coli, 8294; settings: K-10 agar, 10^4 CFU, 37°C
Description: (§1) The following methodology is used to determine the minimum inhibitory concentration (hereinafter referred to as MIC) of the […] of this invention.
(§2) The test organisms are grown in approximately 15-20 ml of Antibiotic Assay broth (Difco) by inoculating (in tubes) the broth with a loopful of the organism from a BHI (Difco) agar slant. The inoculated tubes are incubated at 37°C for 18 to 20 hours. These cultures are assumed to contain 10^9 colony forming units (hereinafter CFU) per milliliter. The cultures are diluted 1:100 to give a final inoculum level of 10^4 CFU; dilutions are made with K-10 broth^*.
(§3) The compounds are dissolved in the appropriate diluent at a concentration of 1000 µg/ml. Twofold dilutions are made in K-10 broth resulting in a range from 1000 µg/ml to 0.5 µg/ml. 1.5 ml of each dilution is placed into individual square petri dishes to which 13.5 ml of K-10 agar^** is added. The final drug concentration in the agar ranges from 100 µg/ml to 0.05 µg/ml. Organism growth control plates containing agar only are prepared and inoculated before and after the test plates. The organisms are applied to the agar surface of each plate with the Denley Multipoint Inoculator (which delivers approximately 0.001 ml of each organism) resulting in a final inoculum level of 10^4 CFU on the agar surface.
(§4) The plates are incubated at 37 °C for 18 hours and the MIC's are determined. The MIC is the lowest concentration of compound inhibiting growth of the organism.
(§5) The tables that follow are tabulated results obtained when the B-lactams of this invention are tested against various organisms. The number following each organism refers to the number of the organism in the collection of E. R. Squibb & Sons,.Inc., Princeton, New Jersey. […] The symbol "N.T." means not tested.

[2] = system: Salmonella typhosa, 1195; settings: K-10 agar, 10^4 CFU, 37°C
Description: as §1, §2, §3, §4, §5

[3] = system: Enterobacter aerogenes, 10078
Description: as §1, §2, §3, §4, §5

[4] = system: Staphylococcus aureus, 10165
Description: as §1, §2, §3, §4, §5

[5] = system: Pseudomonas aeruginosa, 9545; settings: K-10 agar, 10^4 CFU, 37°C
Description: as §1, §2, §3, §4, §5

[6] = system: Proteus mirabilis, 3855; settings: K-10 agar, 10^4 CFU, 37°C
Description: as §1, §2, §3, §4, §5

[7] = system: Shigella sonnei, 8449; settings: K-10 agar, 10^4 CFU, 37°C, 18 hours
Description: as §1, §2, §3, §4, §5

[8] = system: Acinetobacter calcoaceticus, 8333; settings: K-10 agar, 10^4 CFU, 37°C
Description: as §1, §2, §3, §4, §5

[9] = system: Proteus vulgaris, 9416; settings: K-10 agar, 10^4 CFU, 37°C
Description: as §1, §2, §3, §4, §5

[10] = system: Klebsiella aerogenes, 10440; settings: K-10 agar, 10^4 CFU, 37°C
Description: as §1, §2, §3, §4, §5

[11] = system: Staphylococcus aureus, 2400
Description: as §1, §2, §3, §4, §5

[12] = system: Staphylococcus aureus, 2399
Description: as §1, §2, §3, §4, §5

[13] = system: Proteus rettgeri, 8479; settings: K-10 agar, 10^4 CFU, 37°C
Description: as §1, §2, §3, §4, §5

[14] = system: Citrobacter freundii, 9518; settings: K-10 agar, 10^4 CFU, 37°C
Description: as §1, §2, §3, §4, §5

[15] = system: Streptococcus faecalis, 9011
Description: as §1, §2, §3, §4, §5

[16] = system: Pseudomonas aeruginosa, 8329; settings: K-10 agar, 10^4 CFU, 37°C
Description: as §1, §2, §3, §4, §5

[17] = system: Escherichia coli, 10896; settings: K-10 agar, 10^4 CFU, 37°C, 18 hours
Description: as §1, §2, §3, §4, §5

[18] = system: Serratia marcescens, 9783; settings: K-10 agar, 10^4 CFU, 37°C
Description: as §1, §2, §3, §4, §5

[19] = system: Staphylococcus aureus, 1276
Description: as §1, §2, §3, §4, §5

[20] = system: Escherichia coli, 10857; settings: K-10 agar, 10^4 CFU, 37°C
Description: as §1, §2, §3, §4, §5

[21] = system: Escherichia coli, 10909; settings: K-10 agar, 10^4 CFU, 37°C, 18 hours
Description: as §1, §2, §3, §4, §5

[22] = system: Klebsiella pneumoniae, 9527; settings: K-10 agar, 10^4 CFU, 37°C
Description: as §1, §2, §3, §4, §5

[23] = system: Streptococcus agalactiae, 9287; settings: K-10 agar, 10^4 CFU, 37°C, 18 hours
Description: as §1, §2, §3
(§6) The MIC is the lowest concentration of compound inhibiting growth of the organism.
(§7) The number following each organism refers to the number of the organism in the collection of E. R. Squibb & Sons,.Inc., Princeton, New Jersey. […] The symbol "N.T." means not tested.

[24] = system: Micrococcus luteus, 2495; settings: Micrococcus luteus, 2495, 18 h, K-10 agar, 10^4 CFU, 37°C
Description: as §1, §2, §3, §6, §7

C[C@@H]1[C@H](NC(=O)/C(=N\OC(C)(C)C(=O)O)c2csc(N)n2)C(=O)N1S(=O)(=O)O [Example 16, [3α(Z),4α]-3-[[(2-Amino-4-thiazolyl) [(1-carboxy-1-methylethoxy)imino]acetyl]amino]-4-methyl-2-oxo-l-azetidinesulfonic acid, potassium salt (1:2)]
MIC ([1]; Escherichia coli, 8294, 18 h): 0.4 µg/mL
MIC ([2]; Salmonella enterica, TYPHOSA, 18 h): < 0.05 µg/mL
MIC ([3]; Klebsiella aerogenes, 10078, 18 h): 0.8 µg/mL
MIC ([4]; Staphylococcus aureus, 10165, 18 h): > 100 µg/mL
MIC ([5]; Pseudomonas aeruginosa, 9545, 18 h): 0.8 µg/mL
MIC ([6]; Proteus mirabilis, 3855, 18 h): < 0.05 µg/mL
M.I.C. [7]: 0.4 µg/mL
MIC ([8]; Acinetobacter calcoaceticus, 8333, 18 h): 50 µg/mL
MIC ([9]; Proteus vulgaris, 9416, 18 h): < 0.05 µg/mL
MIC ([10]; Klebsiella aerogenes, 10440, 18 h): 0.8 µg/mL
MIC ([11]; Staphylococcus aureus, 2400, 18 h): > 100 µg/mL
MIC ([12]; Staphylococcus aureus, 2399, 18 h): > 100 µg/mL
MIC ([13]; Providencia rettgeri, 8479, 18 h): < 0.05 µg/mL
MIC ([14]; Citrobacter freundii, 9518, 18 h): 0.8 µg/mL
MIC ([15]; Enterococcus faecalis, 9011, 18 h): > 100 µg/mL
MIC ([16]; Pseudomonas aeruginosa, 8329, 18 h): 3.1 µg/mL
MIC [17]: 0.2 µg/mL
MIC ([18]; Serratia marcescens, 9783, 18 h): 0.4 µg/mL
MIC ([19]; Staphylococcus aureus, 1276, 18 h): > 100 µg/mL
MIC ([20]; Escherichia coli, 10857, 18 h): 0.2 µg/mL
MIC [21]: < 0.05 µg/mL
MIC ([22]; Klebsiella pneumoniae, 9527, 18 h): 0.1 µg/mL
M.I.C. [23]: 50 µg/mL
MIC [24]: 25 µg/mL

C[C@@H]1[C@H](NC(=O)/C(=N\OC(C)(C)C(=O)O)c2csc(N)n2)C(=O)N1S(=O)(=O)O [Example 23, [3S-(3α(Z),4a]]-3-[[(2-Amino-4-thiazolyl) [(1-carboxy-1-methylethoxy)imino)acetyl]amino]-4-methyl-2-oxo-l-azetidinesulfonic acid, potassium salt (1:2)]
M.I.C. ([1]; 18 hours): 0.2 µg/mL
M.I.C. ([2]; 18 hours): 0.05 µg/mL
M.I.C. ([3]; Enterobacter aerogenes, 10078, K-10 agar, 10^4 CFU, 37°C, 18 hours): 0.8 µg/mL
M.I.C. ([4]; Staphylococcus aureus, 10165, K-10 agar, 10^4 CFU, 37°C, 18 hours): - (A dash (-) in the tables means that the compound tested did not show activity against the particular organism at 100 µg/ml)
M.I.C. ([5]; 18 hours): 0.4 µg/mL
M.I.C. ([6]; 18 hours): 0.05 µg/mL
M.I.C. [7]: 0.1 µg/mL
M.I.C. ([8]; 18 hours): 25 µg/mL
M.I.C. ([9]; 18 hours): 0.05 µg/mL
M.I.C. ([10]; 18 hours): 0.4 µg/mL
M.I.C. ([11]; Staphylococcus aureus, 2400, K-10 agar, 10^4 CFU, 37°C, 18 hours): - (A dash (-) in the tables means that the compound tested did not show activity against the particular organism at 100 µg/ml)
M.I.C. ([12]; Staphylococcus aureus, 2399, K-10 agar, 10^4 CFU, 37°C, 18 hours): - (A dash (-) in the tables means that the compound tested did not show activity against the particular organism at 100 µg/ml)
M.I.C. ([13]; 18 hours): 0.05 µg/mL
M.I.C. ([14]; 18 hours): 0.4 µg/mL
M.I.C. ([15]; Streptococcus faecalis, 9011, K-10 agar, 10^4 CFU, 37°C, 18 hours): - (A dash (-) in the tables means that the compound tested did not show activity against the particular organism at 100 µg/ml)
M.I.C. ([16]; 18 hours): 1.6 µg/mL
M.I.C. [17]: 0.2 µg/mL
M.I.C. ([18]; 18 hours): 0.2 µg/mL
M.I.C. ([19]; Staphylococcus aureus, 1276, K-10 agar, 10^4 CFU, 37°C, 18 hours): - (A dash (-) in the tables means that the compound tested did not show activity against the particular organism at 100 µg/ml)
M.I.C. ([20]; 18 hours): 0.1 µg/mL
M.I.C. ([22]; 18 hours): 0.05 µg/mL

— patent EP0187355A1, “Process for preparing beta-lactam antibiotics” (E.R. Squibb & Sons, Inc., priority 1981, dated 1982)
